Measured values taken from patent publication EP4635500A1, “THERAPEUTIC AGENT FOR BACTERIAL INFECTION” (Sumitomo Pharma Co., Ltd., priority 2022, dated 2024).
≈ marks a conversion by molar mass, not a printed value. Like-named read-outs stand apart in the source and are kept apart here.

Test system: Enterobacterales
Experiment: MIC, broth microdilution, CDC/FDA Antibiotic Resistance Isolate Bank (Example 7, Tables 8, 11, 12)
Type: cell-based

Q: With `CN(C)c1cc(NC(=O)CNC(C)(C)C)c(O)c2c1C[C@H]1C[C@H]3[C@H](N(C)C)C(=O)C(C(N)=O)=C(O)[C@@]3(O)C(=O)C1=C2O` [Tigecyeline] as the compound, how does the MIC (Klebsiella pneumoniae, KUB No. 5576, AR Bank # 79) read?
A: 0.5 µg/mL (≈ 0.854 µM)

Q: What about the MIC (Klebsiella pneumoniae, KUB No. 5577, AR Bank # 80) of the same compound?
A: 0.25 µg/mL (≈ 0.427 µM)

Q: And the MIC (Klebsiella pneumoniae, KUB No. 5584, AR Bank # 87)?
A: 2 µg/mL (≈ 3.41 µM)

Q: What about the MIC (Klebsiella pneumoniae, KUB No. 5594, AR Bank # 97) of the same compound?
A: 1 µg/mL (≈ 1.71 µM)

Q: What about the MIC (Klebsiella pneumoniae, KUB No. 5595, AR Bank # 98) of the same compound?
A: 0.5 µg/mL (≈ 0.854 µM)

Q: And the MIC (Klebsiella pneumoniae, KUB No. 5603, AR Bank # 106)?
A: 2 µg/mL (≈ 3.41 µM)

Q: And the MIC (Klebsiella pneumoniae, KUB No. 5604, AR Bank # 107)?
A: 0.25 µg/mL (≈ 0.427 µM)

Q: What about the MIC (Klebsiella pneumoniae, KUB No. 5606, AR Bank # 109) of the same compound?
A: 1 µg/mL (≈ 1.71 µM)

Q: What about the MIC (Klebsiella pneumoniae, KUB No. 5609, AR Bank # 112) of the same compound?
A: 0.5 µg/mL (≈ 0.854 µM)

Q: And the MIC (Klebsiella pneumoniae, KUB No. 5610, AR Bank # 113)?
A: 0.5 µg/mL (≈ 0.854 µM)

Q: And the MIC (Klebsiella pneumoniae, KUB No. 5612, AR Bank # 115)?
A: 2 µg/mL (≈ 3.41 µM)

Q: What about the MIC (Klebsiella pneumoniae, KUB No. 5614, AR Bank # 117) of the same compound?
A: 0.5 µg/mL (≈ 0.854 µM)

Q: And the MIC (Klebsiella pneumoniae, KUB No. 5617, AR Bank # 120)?
A: 0.5 µg/mL (≈ 0.854 µM)

Q: And the MIC (Klebsiella pneumoniae, KUB No. 5622, AR Bank # 125)?
A: 1 µg/mL (≈ 1.71 µM)

Q: And the MIC (Klebsiella pneumoniae, KUB No. 5623, AR Bank # 126)?
A: 0.5 µg/mL (≈ 0.854 µM)

Q: What about the MIC (Klebsiella pneumoniae, KUB No. 5626, AR Bank # 129) of the same compound?
A: 1 µg/mL (≈ 1.71 µM)

Q: What about the MIC (Klebsiella pneumoniae, KUB No. 5632, AR Bank # 135) of the same compound?
A: 1 µg/mL (≈ 1.71 µM)

Q: And the MIC (Klebsiella pneumoniae, KUB No. 5635, AR Bank # 138)?
A: 2 µg/mL (≈ 3.41 µM)

Q: What about the MIC (Klebsiella pneumoniae, KUB No. 5636, AR Bank # 139) of the same compound?
A: 0.5 µg/mL (≈ 0.854 µM)

Q: What about the MIC (Klebsiella pneumoniae, KUB No. 5637, AR Bank # 140) of the same compound?
A: 1 µg/mL (≈ 1.71 µM)

Q: What about the MIC (Klebsiella pneumoniae, KUB No. 5638, AR Bank # 141) of the same compound?
A: 1 µg/mL (≈ 1.71 µM)

Q: What about the MIC (Klebsiella pneumoniae, KUB No. 5639, AR Bank # 142) of the same compound?
A: 1 µg/mL (≈ 1.71 µM)

Q: And the MIC (Klebsiella pneumoniae, KUB No. 5640, AR Bank # 143)?
A: 2 µg/mL (≈ 3.41 µM)

Q: And the MIC (Klebsiella pneumoniae, KUB No. 5642, AR Bank # 145)?
A: 0.5 µg/mL (≈ 0.854 µM)

Q: What about the MIC (Klebsiella pneumoniae, KUB No. 5643, AR Bank # 146) of the same compound?
A: 1 µg/mL (≈ 1.71 µM)

Q: What about the MIC (Klebsiella pneumoniae, KUB No. 5645, AR Bank # 148) of the same compound?
A: 1 µg/mL (≈ 1.71 µM)

Q: What about the MIC (Klebsiella pneumoniae, KUB No. 5649, AR Bank # 152) of the same compound?
A: 2 µg/mL (≈ 3.41 µM)

Q: What about the MIC (Klebsiella pneumoniae, KUB No. 5650, AR Bank # 153) of the same compound?
A: 1 µg/mL (≈ 1.71 µM)

Q: What about the MIC (Klebsiella pneumoniae, KUB No. 5655, AR Bank # 158) of the same compound?
A: 1 µg/mL (≈ 1.71 µM)

Q: And the MIC (Klebsiella pneumoniae, KUB No. 5657, AR Bank # 160)?
A: 0.5 µg/mL (≈ 0.854 µM)

Q: And the MIC (Klebsiella pneumoniae, Klebsiella pneumoniae KUB No. 5784, AR Bank #438)?
A: 1 µg/mL (≈ 1.71 µM)

Q: What about the MIC (Klebsiella pneumoniae, Klebsiella pneumoniae KUB No. 5797, AR Bank #453) of the same compound?
A: 1 µg/mL (≈ 1.71 µM)

Q: What about the MIC (Klebsiella pneumoniae, Klebsiella pneumoniae KUB No. 5809, AR Bank #504) of the same compound?
A: 1 µg/mL (≈ 1.71 µM)

Q: And the MIC (Klebsiella pneumoniae, Klebsiella pneumoniae KUB No. 5810, AR Bank #505)?
A: 0.5 µg/mL (≈ 0.854 µM)

Q: What about the MIC (Klebsiella pneumoniae, Klebsiella pneumoniae KUB No. 5811, AR Bank #506) of the same compound?
A: 2 µg/mL (≈ 3.41 µM)

Q: What about the MIC (Klebsiella pneumoniae, Klebsiella pneumoniae KUB No. 5812, AR Bank #507) of the same compound?
A: 2 µg/mL (≈ 3.41 µM)

Q: What about the MIC (Klebsiella pneumoniae, Klebsiella pneumoniae KUB No. 5827, AR Bank #522) of the same compound?
A: 1 µg/mL (≈ 1.71 µM)

Q: What about the MIC (Klebsiella pneumoniae, Klebsiella pneumoniae KUB No. 5828, AR Bank #523) of the same compound?
A: 1 µg/mL (≈ 1.71 µM)

Q: What about the MIC (Klebsiella pneumoniae, Klebsiella pneumoniae KUB No. 5829, AR Bank #524) of the same compound?
A: 1 µg/mL (≈ 1.71 µM)

Q: What about the MIC (Klebsiella pneumoniae, Klebsiella pneumoniae KUB No. 5830, AR Bank #525) of the same compound?
A: 1 µg/mL (≈ 1.71 µM)

Q: And the MIC (Kluyvera ascorbata, KUB No. 5641, AR Bank # 144, read-out: MIC)?
A: 2 µg/mL (≈ 3.41 µM)

Q: What about the MIC (Morganella morganii, KUB No. 5554, AR Bank# 57) of the same compound?
A: 0.5 µg/mL (≈ 0.854 µM)

Q: And the MIC (Morganella morganii, KUB No. 5630, AR Bank # 133, read-out: MIC)?
A: 4 µg/mL (≈ 6.83 µM)

Q: What about the MIC (Proteus mirabilis, KUB No. 5556, AR Bank# 59) of the same compound?
A: 1 µg/mL (≈ 1.71 µM)

Q: And the MIC (Proteus mirabilis, KUB No. 5652, AR Bank # 155)?
A: 2 µg/mL (≈ 3.41 µM)

Q: What about the MIC (Proteus mirabilis, KUB No. 5653, AR Bank # 156) of the same compound?
A: 1 µg/mL (≈ 1.71 µM)

Q: And the MIC (Proteus mirabilis, KUB No. 5656, AR Bank # 159)?
A: 2 µg/mL (≈ 3.41 µM)

Q: What about the MIC (Providencia rettgeri, KUB No. 5579, AR Bank # 82) of the same compound?
A: 2 µg/mL (≈ 3.41 µM)

Q: What about the MIC (Raoultella ornithinolvtica, KUB No. 5631, AR Bank # 134, read-out: MIC) of the same compound?
A: 0.25 µg/mL (≈ 0.427 µM)

Q: And the MIC (Salmonella enterica, Salmonella Senftenberg, KUB No. 5624, AR Bank # 127, read-out: MIC)?
A: 0.5 µg/mL (≈ 0.854 µM)

Q: And the MIC (Serratia marcescens, KUB No. 5588, AR Bank # 91)?
A: 0.5 µg/mL (≈ 0.854 µM)

Q: And the MIC (Serratia marcescens, KUB No. 5596, AR Bank # 99)?
A: 1 µg/mL (≈ 1.71 µM)

Q: And the MIC (Serratia marcescens, KUB No. 5618, AR Bank # 121)?
A: 1 µg/mL (≈ 1.71 µM)

Q: And the MIC (Serratia marcescens, KUB No. 5619, AR Bank # 122)?
A: 1 µg/mL (≈ 1.71 µM)

Q: What about the MIC (Serratia marcescens, KUB No. 5620, AR Bank # 123) of the same compound?
A: 1 µg/mL (≈ 1.71 µM)

Q: What about the MIC (Serratia marcescens, KUB No. 5621, AR Bank # 124) of the same compound?
A: 1 µg/mL (≈ 1.71 µM)

Q: What about the MIC (Serratia marcescens, KUB No. 5627, AR Bank # 130) of the same compound?
A: 1 µg/mL (≈ 1.71 µM)

Q: What about the MIC (Serratia marcescens, KUB No. 5628, AR Bank # 131) of the same compound?
A: 1 µg/mL (≈ 1.71 µM)

Q: What about the MIC (Serratia marcescens, Serratia marcescens KUB No. 5825, AR Bank #520) of the same compound?
A: 1 µg/mL (≈ 1.71 µM)

Q: What about the MIC (Serratia marcescens, Serratia marcescens KUB No. 5826, AR Bank #521) of the same compound?
A: 2 µg/mL (≈ 3.41 µM)
